# Measurements published in patent publication US20260191835A1, “COMBINATIONS COMPRISING A MENIN-MLL INHIBITOR AND AT LEAST ONE OTHER THERAPEUTIC AGENT” (JANSSEN PHARMACEUTICA NV, priority 2022, published 2026).
# Tested on: MOLM-13 cells
# Assay: In vitro proliferation (Cell Titer Glo, 6 days) of Compound 51 in combination with gilteritinib, midostaurin, idarubicin or decitabine, MOLM-13
# Format: cell-based, human
# Set-up: key to maxR call (synergy/antagonism), combination with Gilteritinib on MOLM-13 cell proliferation / Synergy/antagonism call (maxR test), MOLM-13 Cell Proliferation: synergy is indicated by “**”; antagonism is indicated by “*”; no asterisk: absence of any asterisk indicates an additive effect
# Protocol: 3) In Vitro Proliferation—Menin-MLL Inhibitor in Combination with FLT3 Inhibitor (Gilteritinib or Midostaurin), DNA Intercalating Agent (Idarubicin) or Hypomethylating Agent (Decitabine)
# The effect of Compound 51 in combination with gilteritinib, midostaurin, idarubicin or decitabine was determined in proliferation assays.
# AML cell lines MOLM-13, OCI-AML3 and MV4-11 were purchased from DSMZ. MOLM-13 were grown in RPMI medium supplemented with 10% Fetal Bovine Serum (FBS) and 1% penicillin/streptomycin. MV4-11 cells were grown in IMDM medium supplemented with 10% FBS and 1% penicillin/streptomycin. OCI-AML3 cells were cultured in 80-90% alpha-MEM (with or without ribo- and deoxyribonucleosides)+10-20% FBS. All cell lines were cultured at 37° C. in 5% CO2 atmosphere.
# AML cell lines (10-20×10^3 cells/well) were seeded in 96-well plates and grown for 6 days in serum (10%)-containing medium in the presence or absence of inhibitors at the indicated concentrations. Proliferation was analyzed by means of a Cell Titer Glo assay using the […] (Promega, Madison, WI, USA), according to the manufacturer's instructions. Data are mean with standard deviation from two to four independent experiments in technical triplicates.
# R-based Biochemically Intuitive Generalized Loewe (BIGL) model implemented with a highest single agent (HSA) null model. Specifically, the BIGL methodology was applied to calculate drug-drug interactions (Van der Borght, K., Tourny, A., Bagdziunas, R. et al. BIGL: Biochemically Intuitive Generalized Loewe null model for prediction of the expected combined effect compatible with partial agonism and antagonism. Sci Rep 7, 17935 (2017); Thas, O., Tourny, A., Verbist, B., Hawinkel, S., Nazarov, M., Mutambanengwe, K., & Bijnens, L. Statistical detection of synergy: New methods and a comparative study. Pharmaceutical Statistics (2021)).
# Synergy matrix results of the BIGL analysis of the cell line data with HSA as mean model calculated on the basis of the cellular metabolic activity using Cell Titer-Glo assay. Bootstrap confidence intervals are indicated. Effect sizes and their confidence intervals are shown. […] No significant average effect if zero is included in the interval.
# [1] = Compound 51 0.01 μm, Gilteritinib 0.01 μM
# [2] = Compound 51 0.05 μm + Decitabine 0.015 μM
# [3] = Compound 51 0.05 μm + Decitabine 0.15 μM
# [4] = Compound 51 0.05 μm + Idarubicin 0.001 μM
# [5] = Compound 51 0.05 μm + Midostaurin 0.006 μM
smiles,measurement,setting,value
CC(=O)N1CCC(CN2CC[C@@H](Cc3cn(-c4ccc(F)cc4C(=O)N(C)C(C)C)c4cncc(C)c34)C2)CC1 [Compound 51],"Effect size (BIGL, HSA null model), MOLM-13 Cell Proliferation",Compound 51 0.0001 μm + Idarubicin 0.0005 μM,−0.05
same,"Effect size (BIGL, HSA null model), MOLM-13 Cell Proliferation",Compound 51 0.0001 μm + Idarubicin 0.001 μM,−0.02
same,"Effect size (BIGL, HSA null model), MOLM-13 Cell Proliferation",Compound 51 0.0001 μm + Idarubicin 0.0025 μM,0.07
same,"Effect size (BIGL, HSA null model), MOLM-13 Cell Proliferation",Compound 51 0.0001 μm + Idarubicin 0.005 μM,−0.1
same,"Effect size (BIGL, HSA null model), MOLM-13 Cell Proliferation",Compound 51 0.0001 μm + Idarubicin 0.05 μM,0.03
same,"Effect size (BIGL, HSA null model), MOLM-13 Cell Proliferation",Compound 51 0.0001 μm + Idarubicin 0.5 μM,0.02
same,"Effect size (BIGL, HSA null model), MOLM-13 Cell Proliferation",Compound 51 0.0001 μm + Midostaurin 0.0012 μM,−0.07
same,"Effect size (BIGL, HSA null model), MOLM-13 Cell Proliferation",Compound 51 0.0001 μm + Midostaurin 0.006 μM,−0.02
same,"Effect size (BIGL, HSA null model), MOLM-13 Cell Proliferation",Compound 51 0.0001 μm + Midostaurin 0.025 μM,0.05
same,"Effect size (BIGL, HSA null model), MOLM-13 Cell Proliferation",Compound 51 0.0001 μm + Midostaurin 0.05 μM,−0.06
same,"Effect size (BIGL, HSA null model), MOLM-13 Cell Proliferation",Compound 51 0.0001 μm + Midostaurin 0.1 μM,−0.04
same,"Effect size (BIGL, HSA null model), MOLM-13 Cell Proliferation",Compound 51 0.0001 μm + Midostaurin 0.5 μM,−0.02
same,"Effect size (BIGL, HSA null model), MOLM-13 Cell Proliferation",Compound 51 0.001 μm + Decitabine 0.0015 μM,−0.03
same,"Effect size (BIGL, HSA null model), MOLM-13 Cell Proliferation",Compound 51 0.001 μm + Decitabine 0.015 μM,−0.07
same,"Effect size (BIGL, HSA null model), MOLM-13 Cell Proliferation",Compound 51 0.001 μm + Decitabine 0.15 μM,−0.03
same,"Effect size (BIGL, HSA null model), MOLM-13 Cell Proliferation",Compound 51 0.001 μm + Decitabine 1.5 μM,−0.03
same,"Effect size (BIGL, HSA null model), MOLM-13 Cell Proliferation",Compound 51 0.001 μm + Decitabine 3 μM,−0.02
same,"Effect size (BIGL, HSA null model), MOLM-13 Cell Proliferation",Compound 51 0.001 μm + Idarubicin 0.0005 μM,−0.03
same,"Effect size (BIGL, HSA null model), MOLM-13 Cell Proliferation",Compound 51 0.001 μm + Idarubicin 0.001 μM,−0.07
same,"Effect size (BIGL, HSA null model), MOLM-13 Cell Proliferation",Compound 51 0.001 μm + Idarubicin 0.0025 μM,0.04
same,"Effect size (BIGL, HSA null model), MOLM-13 Cell Proliferation",Compound 51 0.001 μm + Idarubicin 0.005 μM,−0.1
same,"Effect size (BIGL, HSA null model), MOLM-13 Cell Proliferation",Compound 51 0.001 μm + Idarubicin 0.05 μM,0.02
same,"Effect size (BIGL, HSA null model), MOLM-13 Cell Proliferation",Compound 51 0.001 μm + Idarubicin 0.5 μM,0.02
same,"Effect size (BIGL, HSA null model), MOLM-13 Cell Proliferation",Compound 51 0.001 μm + Midostaurin 0.0012 μM,−0.03
same,"Effect size (BIGL, HSA null model), MOLM-13 Cell Proliferation",Compound 51 0.001 μm + Midostaurin 0.006 μM,−0.02
same,"Effect size (BIGL, HSA null model), MOLM-13 Cell Proliferation",Compound 51 0.001 μm + Midostaurin 0.025 μM,0.07
same,"Effect size (BIGL, HSA null model), MOLM-13 Cell Proliferation",Compound 51 0.001 μm + Midostaurin 0.05 μM,−0.06
same,"Effect size (BIGL, HSA null model), MOLM-13 Cell Proliferation",Compound 51 0.001 μm + Midostaurin 0.1 μM,−0.04
same,"Effect size (BIGL, HSA null model), MOLM-13 Cell Proliferation",Compound 51 0.001 μm + Midostaurin 0.5 μM,−0.02
same,"Effect size (BIGL, HSA null model), combination with Gilteritinib on MOLM-13 cell proliferation","Compound 51 0.001 μm, Gilteritinib 0.0005 μM",−0.01
same,"Effect size (BIGL, HSA null model), combination with Gilteritinib on MOLM-13 cell proliferation","Compound 51 0.001 μm, Gilteritinib 0.005 μM",−0.06
same,"Effect size (BIGL, HSA null model), combination with Gilteritinib on MOLM-13 cell proliferation","Compound 51 0.001 μm, Gilteritinib 0.01 μM",−0.1
same,"Effect size (BIGL, HSA null model), combination with Gilteritinib on MOLM-13 cell proliferation","Compound 51 0.001 μm, Gilteritinib 0.05 μM",−0.02
same,"Effect size (BIGL, HSA null model), combination with Gilteritinib on MOLM-13 cell proliferation","Compound 51 0.001 μm, Gilteritinib 0.1 μM",0.02
same,"Effect size (BIGL, HSA null model), combination with Gilteritinib on MOLM-13 cell proliferation","Compound 51 0.001 μm, Gilteritinib 1 μM",−0.01
same,"Effect size (BIGL, HSA null model), MOLM-13 Cell Proliferation",Compound 51 0.01 μm + Decitabine 0.0015 μM,0
same,"Effect size (BIGL, HSA null model), MOLM-13 Cell Proliferation",Compound 51 0.01 μm + Decitabine 0.015 μM,−0.09
same,"Effect size (BIGL, HSA null model), MOLM-13 Cell Proliferation",Compound 51 0.01 μm + Decitabine 0.15 μM,−0.16
same,"Effect size (BIGL, HSA null model), MOLM-13 Cell Proliferation",Compound 51 0.01 μm + Decitabine 1.5 μM,−0.05
same,"Effect size (BIGL, HSA null model), MOLM-13 Cell Proliferation",Compound 51 0.01 μm + Decitabine 3 μM,−0.02
same,"Effect size (BIGL, HSA null model), MOLM-13 Cell Proliferation",Compound 51 0.01 μm + Idarubicin 0.0005 μM,−0.35
same,"Effect size (BIGL, HSA null model), MOLM-13 Cell Proliferation",Compound 51 0.01 μm + Idarubicin 0.001 μM,−0.73
same,"Effect size (BIGL, HSA null model), MOLM-13 Cell Proliferation",Compound 51 0.01 μm + Idarubicin 0.0025 μM,−0.26
same,"Effect size (BIGL, HSA null model), MOLM-13 Cell Proliferation",Compound 51 0.01 μm + Idarubicin 0.005 μM,−0.11
same,"Effect size (BIGL, HSA null model), MOLM-13 Cell Proliferation",Compound 51 0.01 μm + Idarubicin 0.05 μM,0.02
same,"Effect size (BIGL, HSA null model), MOLM-13 Cell Proliferation",Compound 51 0.01 μm + Idarubicin 0.5 μM,0.02
same,"Effect size (BIGL, HSA null model), MOLM-13 Cell Proliferation",Compound 51 0.01 μm + Midostaurin 0.0012 μM,0.01
same,"Effect size (BIGL, HSA null model), MOLM-13 Cell Proliferation",Compound 51 0.01 μm + Midostaurin 0.006 μM,−0.06
same,"Effect size (BIGL, HSA null model), MOLM-13 Cell Proliferation",Compound 51 0.01 μm + Midostaurin 0.025 μM,0.1
same,"Effect size (BIGL, HSA null model), MOLM-13 Cell Proliferation",Compound 51 0.01 μm + Midostaurin 0.05 μM,−0.06
same,"Effect size (BIGL, HSA null model), MOLM-13 Cell Proliferation",Compound 51 0.01 μm + Midostaurin 0.1 μM,−0.04
same,"Effect size (BIGL, HSA null model), MOLM-13 Cell Proliferation",Compound 51 0.01 μm + Midostaurin 0.5 μM,−0.02
same,"Effect size (BIGL, HSA null model), combination with Gilteritinib on MOLM-13 cell proliferation","Compound 51 0.01 μm, Gilteritinib 0.0005 μM",0.01
same,"Effect size (BIGL, HSA null model), combination with Gilteritinib on MOLM-13 cell proliferation","Compound 51 0.01 μm, Gilteritinib 0.005 μM",−0.08
same,"Effect size (BIGL, HSA null model), combination with Gilteritinib on MOLM-13 cell proliferation",[1],−0.25
same,"maxR call (synergy/antagonism), combination with Gilteritinib on MOLM-13 cell proliferation",[1],**
same,"Effect size (BIGL, HSA null model), combination with Gilteritinib on MOLM-13 cell proliferation","Compound 51 0.01 μm, Gilteritinib 0.05 μM",−0.09
same,"Effect size (BIGL, HSA null model), combination with Gilteritinib on MOLM-13 cell proliferation","Compound 51 0.01 μm, Gilteritinib 0.1 μM",0.1
same,"Effect size (BIGL, HSA null model), combination with Gilteritinib on MOLM-13 cell proliferation","Compound 51 0.01 μm, Gilteritinib 1 μM",−0.01
same,"Effect size (BIGL, HSA null model), MOLM-13 Cell Proliferation",Compound 51 0.05 μm + Decitabine 0.0015 μM,−0.03
same,"Effect size (BIGL, HSA null model), MOLM-13 Cell Proliferation",[2],−0.13
same,"Synergy/antagonism call (maxR test), MOLM-13 Cell Proliferation",[2],**
same,"Effect size (BIGL, HSA null model), MOLM-13 Cell Proliferation",[3],−0.32
same,"Synergy/antagonism call (maxR test), MOLM-13 Cell Proliferation",[3],**
same,"Effect size (BIGL, HSA null model), MOLM-13 Cell Proliferation",Compound 51 0.05 μm + Decitabine 1.5 μM,−0.05
same,"Effect size (BIGL, HSA null model), MOLM-13 Cell Proliferation",Compound 51 0.05 μm + Decitabine 3 μM,−0.03
same,"Effect size (BIGL, HSA null model), MOLM-13 Cell Proliferation",Compound 51 0.05 μm + Idarubicin 0.0005 μM,−0.1
same,"Effect size (BIGL, HSA null model), MOLM-13 Cell Proliferation",[4],−0.41
same,"Synergy/antagonism call (maxR test), MOLM-13 Cell Proliferation",[4],**
same,"Effect size (BIGL, HSA null model), MOLM-13 Cell Proliferation",Compound 51 0.05 μm + Idarubicin 0.0025 μM,−0.23
same,"Effect size (BIGL, HSA null model), MOLM-13 Cell Proliferation",Compound 51 0.05 μm + Idarubicin 0.005 μM,−0.11
same,"Effect size (BIGL, HSA null model), MOLM-13 Cell Proliferation",Compound 51 0.05 μm + Idarubicin 0.05 μM,0.02
same,"Effect size (BIGL, HSA null model), MOLM-13 Cell Proliferation",Compound 51 0.05 μm + Idarubicin 0.5 μM,0.02
same,"Effect size (BIGL, HSA null model), MOLM-13 Cell Proliferation",Compound 51 0.05 μm + Midostaurin 0.0012 μM,−0.03
same,"Effect size (BIGL, HSA null model), MOLM-13 Cell Proliferation",[5],−0.21
same,"Synergy/antagonism call (maxR test), MOLM-13 Cell Proliferation",[5],**
same,"Effect size (BIGL, HSA null model), MOLM-13 Cell Proliferation",Compound 51 0.05 μm + Midostaurin 0.025 μM,−0.14
same,"Effect size (BIGL, HSA null model), MOLM-13 Cell Proliferation",Compound 51 0.05 μm + Midostaurin 0.05 μM,0.08
same,"Effect size (BIGL, HSA null model), MOLM-13 Cell Proliferation",Compound 51 0.05 μm + Midostaurin 0.1 μM,−0.04
same,"Effect size (BIGL, HSA null model), MOLM-13 Cell Proliferation",Compound 51 0.05 μm + Midostaurin 0.5 μM,−0.02
same,"Effect size (BIGL, HSA null model), combination with Gilteritinib on MOLM-13 cell proliferation","Compound 51 0.05 μm, Gilteritinib 0.0005 μM",−0.03
